Source: patent US8076331B2, “Substituted pyridazine derivatives” (Cephalon, Inc., priority 2008, dated 2011)
pKi: −log10 of the molar value. Where a name gives a salt, the structure may show the parent alone.

Tests used:
human H3 receptor = target: T1, human H3 receptor (Homo sapiens, UniProt Q9Y5N1); test: Human H3 radioligand binding ([3H]-N-alpha-methylhistamine, CHO cell membranes); conditions: membranes of CHO cells stably expressing the human H3 receptor; [3H]-N-alpha-methylhistamine approx. 1 nM
T1 construct: expressed in transfected cells
T1 sequence (Q9Y5N1 whole entry): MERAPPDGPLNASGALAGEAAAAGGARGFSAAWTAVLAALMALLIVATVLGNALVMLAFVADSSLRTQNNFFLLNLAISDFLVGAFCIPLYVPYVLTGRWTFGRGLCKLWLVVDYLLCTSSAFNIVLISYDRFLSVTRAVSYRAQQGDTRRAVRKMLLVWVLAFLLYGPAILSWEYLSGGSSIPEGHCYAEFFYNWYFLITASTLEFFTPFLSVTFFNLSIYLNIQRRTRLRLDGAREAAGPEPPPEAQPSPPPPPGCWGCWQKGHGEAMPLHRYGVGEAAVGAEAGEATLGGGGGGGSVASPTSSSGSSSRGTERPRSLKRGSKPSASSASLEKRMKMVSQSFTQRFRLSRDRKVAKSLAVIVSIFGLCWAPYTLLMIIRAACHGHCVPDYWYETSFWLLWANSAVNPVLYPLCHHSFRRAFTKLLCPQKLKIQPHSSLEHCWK
Protocol: Methods: CHO cells stably expressing the human H3 receptor (GenBank: NM_007232) were harvested and cell pellets were frozen (—80° C.). Cell pellets were resuspended in 5 mM Tris-HCl, pH 7.5 with […] and a cocktail of protease inhibitors (Complete Protease Inhibitior Tablets, Roche Diagnostics). Cells were disrupted using a polytron cell homogenizer and the suspension was centrifuged at 1000×g for 10 minutes at 4° C. The pellet was discarded and the supernatant centrifuged at 40,000×g for 30 min at 4° C. This membrane pellet was washed in membrane buffer containing 50 mM Tris-HCl, pH 7.5 with 0.6 mM EDTA, 5 mM MgCl2 and protease inhibitors, recentrifuged as above and the final pellet resuspended in membrane buffer plus 250 mM sucrose and frozen at −80° C.
Radioligand Binding. Membranes were resuspended in 50 mM Tris HCl (pH 7.4), 5 mM MgCl2, 0.1% BSA. The membrane suspensions (10 μg protein per well) were incubated in a 96 well microtiter plate with [^3H]-N-alpha-methylhistamine (approximately 1 nM final concentration), test compounds at various concentrations (0.01 nM-30 μM) and scintillation proximity beads (Perkin Elmer, FlashBlueGPCR Scintillating Beads) in a final volume of 80 μl for 4 hours at room temperature, protected from light. Non-specific binding was determined in the presence of 10 μM clobenpropit. Radioligand bound to receptor, and therefore in proximity to the scintillation beads, was measured using a MicroBeta scintillation counter.

Row | melting point [°C] | pKi (human H3 receptor) | Compound
1 | 198 to 201 | – | C[C@@H]1CCCN1CCCOc1ccc(-c2cccnn2)cc1 (as salt: HCl) [Example 45, 3-{4-[3-((R)-2-Methyl-pyrrolidin-1-yl)-propoxy]-phenyl}-pyridazine]
2 | 160 | > 7.30 | C[C@@H]1CCCN1CCCOc1ccc(-c2ccc(OCc3ccc(C(F)(F)F)cc3)nn2)cc1 [Example 27, 3-{4-[3-((R)-2-Methyl-pyrrolidin-1-yl)-propoxy]-phenyl}-6-(4-trifluoromethyl-benzyloxy)pyridazine]
3 | – | > 7.30 | CCNc1ccc(-c2ccc(OCCCN3CCC[C@H]3C)cc2)nn1 [Example 28, Ethyl-(6-{4-[3-((R)-2-methyl-pyrrolidin-1-yl)-propoxy]-phenyl}pyridazin-3-yl)amine]
4 | 139.5 to 141 | > 7.30 | C[C@@H]1CCCN1CCCOc1ccc(-c2ccc(NCc3ccccc3)nn2)cc1 [Example 29, Benzyl-(6-{4-[3-((R)-2-methyl-pyrrolidin-1-yl)-propoxy]-phenyl}-pyridazin-3-yl)amine]
5 | 101 | > 7.30 | CSc1ccc(-c2ccc(OCCCN3CCC[C@H]3C)cc2)nn1 [Example 30]
6 | 122 | 7.00 to 7.29 | CSc1ccc(-c2ccc(OCCCN3CCCCC3)cc2)nn1 [Example 31, 3-Methylsulfanyl-6-[4-(3-piperidin-1-yl-propoxy)phenyl]pyridazine]
7 | – | > 7.30 | CSc1nnc(-c2ccc(OCCCN3CCC[C@H]3C)cc2)c2c1CCC2 [Example 32, 1-{4-[3-((R)-2-Methyl-pyrrolodin-1-yl)-propoxy]-phenyl}-4-methylsulfanyl-6,7-dihydro-5H-cyclopenta[d]pyridazine]
8 | 104 | > 7.30 | C[C@@H]1CCCN1CCCOc1ccc(-c2ccc(SCc3ccccc3)nn2)cc1 [Example 33, 3-Benzylsulfanyl-6-{4-[3-((R)-2-methyl-pyrrolidin-1-yl)-propoxy]phenyl}pyridazine]
9 | – | > 7.30 | C[C@@H]1CCCN1CCCOc1ccc(-c2ccc([S+]([O-])Cc3ccccc3)nn2)cc1 (stereo partly drawn) [Example 35, 3-{4-[3-((R)-2-Methylpyrrolidin-1-yl)propoxy]phenyl}-6-phenylmethanesulfinyl-pyridazine]
10 | – | > 7.30 | C[C@@H]1CCCN1CCCOc1ccc(-c2ccc(S(=O)(=O)Cc3ccccc3)nn2)cc1 [Example 37, 3-{4-[3-((R)-2-Methyl-pyrrolidin-1-yl)-propoxy]phenyl}-6-phenylmethanesulfonyl-pyridazine]
11 | – | > 7.30 | C[C@H](COc1ccc(-c2ccc(Cl)nn2)cc1)CN1CCC[C@H]1C [Example 43, 3-Chloro-6-{4-[(S)-2-methyl-3-((R)-2-methylpyrrolidin-1-yl)propoxy]-phenyl}pyridazine]
12 | – | > 7.30 | C[C@@H]1CCCN1CCCOc1ccc(-c2cccnn2)cc1 [Example 45, 3-{4-[3-((R)-2-Methyl-pyrrolidin-1-yl)-propoxy]-phenyl}-pyridazine]

Continued, compound first:

Row | Compound | melting point [°C] | pKi (human H3 receptor)
13 | C[C@@H]1CCCN1CCCOc1ccc(-c2ccc(Cl)nn2)cc1 [Example 1, 3-Chloro-6-{4-[3-((R)-2-methyl-pyrrolidin-1-yl)propoxy]-phenyl}pyridazine] | – | > 7.30
14 | Clc1ccc(-c2ccc(OCCCN3CCCCC3)cc2)nn1 [Example 2, 3-Chloro-6-[4-(3-piperidin-1-yl-propoxy)-phenyl]pyridazine] | 140 | > 7.30
15 | Cc1ccc(-c2ccc(OCCCN3CCC[C@H]3C)cc2)nn1 [Example 3, 3-Methyl-6-{4-[3-((R)-2-methyl-pyrrolidin-1-yl)-propoxy]-phenyl}pyridazine] | – | > 7.30
16 | C[C@@H]1CCCN1CCCOc1ccc(-c2ccc(-c3ccccc3)nn2)cc1 [Example 4, 3-{4-[3-((R)-2-Methyl-pyrrolidin-1-yl)-propoxy]-phenyl}-6-phenylpyridazine] | 158 to 160 | > 7.30
17 | C[C@@H]1CCCN1CCCOc1ccc(-c2ccc(N3CCCC3)nn2)cc1 [Example 5, 3-{4-[3-((R)-2-Methyl-pyrrolidin-1-yl)-propoxy]-phenyl}-6-pyrrolidin-1-yl-pyridazine] | 175 to 180 | > 7.30
18 | C[C@@H]1CCCN1CCCOc1ccc(-c2ccc(N3CCOCC3)nn2)cc1 [Example 6, 4-(6-{4-[3-((R)-2-Methylpyrrolidin-1-yl)-propoxy]phenyl}pyridazin-3-yl)morpholine] | – | > 7.30
19 | C[C@@H]1CCCN1CCCOc1ccc(-c2ccc(N)nn2)cc1 [Example 7, 6-{4-[3-((R)-2-Methyl-pyrrolidin-1-yl)-propoxy]-phenyl}pyridazin-3-ylamine] | 121 to 122 | > 7.30
20 | CNc1ccc(-c2ccc(OCCCN3CCC[C@H]3C)cc2)nn1 [Example 8, Methyl-(6-{4-[3-((R)-2-methyl-pyrrolidin-1-yl)-propoxy]phenyl}pyridazin-3-yl)amine] | 126 to 129 | > 7.30
21 | C[C@@H]1CCCN1CCCOc1ccc(-c2ccc(N3CCC(O)CC3)nn2)cc1 [Example 9, 1-(6-{4-[3-((R)-2-Methylpyrrolidin-1-yl)-propoxy]phenyl}pyridazin-3-yl)piperidin-4-ol] | 138 to 141 | > 7.30
22 | COc1cc(-c2ccc(Cl)nn2)ccc1OCCCN1CCC[C@H]1C [Example 10, 3-Chloro-6-{3-methoxy-4-[3-((R)-2-methyl-pyrrolidin-1-yl)propoxy}phenyl}pyridazine] | 122 | < 7.00
23 | COc1cc(-c2ccc(Cl)nn2)ccc1OCCCN1CCCCC1 [Example 11, 3-Chloro-6-[3-methoxy-4-(3-piperidin-1-yl-propoxy)phenyl]pyridazine] | 120 | < 7.00
24 | Cc1cc(OCCCN2CCCCC2)ccc1-c1ccc(Cl)nn1 [Example 12, 3-Chloro-6-[2-methyl-4-(3-piperidin-1-yl-propoxy)phenyl]pyridazine] | 85 | > 7.30
25 | C[C@@H]1CCCN1CCCOc1ccc(-c2ccc(Cl)nn2)cc1C#N [Example 13, 5-(6-Chloro-pyridazin-3-yl)-2-[3-((R)-2-methyl-pyrrolidin-1-yl)-propoxy]benzonitrile] | 134 to 136 | > 7.30
26 | N#Cc1cc(-c2ccc(Cl)nn2)ccc1OCCCN1CCCCC1 [Example 14, 5-(6-Chloro-pyridazin-3-yl)-2-(3-piperidin-1-yl-propoxy)benzonitrile] | 140 to 142 | < 7.00
27 | Clc1nnc(-c2ccc(OCCCN3CCCCC3)cc2)c2c1CCC2 [Example 15, 1-Chloro-4-[4-(3-piperidin-1-yl-propoxy)-phenyl]-6,7-dihydro-5H-cyclopenta[d]pyridazine] | 120 | > 7.30
28 | C[C@@H]1CCCN1CCCOc1ccc(-c2ccc(-c3cccs3)nn2)cc1 [Example 16, 3-{4-[3-((R)-2-Methyl-pyrrolidin-1-yl)-propoxy]phenyl}-6-thiophen-2-yl-pyridazine] | 108 | > 7.30
29 | C[C@@H]1CCCN1CCCOc1ccc(-c2nnc(Cl)c3c2CCC3)cc1 [Example 17, 1-Chloro-4-{4-[3-((R)-2-metyl-pyrrolidin-1-yl)-propoxy]-phenyl}-6,7-dihydro-5H-cyclopenta[d]pyridazine] | 65 | > 7.30
30 | C[C@@H]1CCCN1CCCOc1ccc(-c2nnc(Cl)c3c2C2CCC3CC2)cc1 [Example 18, 3-Chloro-6-{4-[3-((R)-2-methyl-pyrrolidin-1-yl)-propoxy]-phenyl}-4,5-diaza-tricyclo[6.2.2.0*2,7*]dodeca-2(7),3,5-triene] | 132 to 134 | > 7.30
31 | C[C@@H]1CCCN1CCCOc1ccc(-c2ccc(Oc3cncc(Cl)c3)nn2)cc1 [Example 19] | 119 | > 7.30
32 | c1ccc(COc2ccc(-c3ccc(OCCCN4CCCCC4)cc3)nn2)cc1 [Example 20, 3-Benzyloxy-6-[4-(3-piperidin-1-yl-propoxy)phenyl]pyridazine] | – | > 7.30
33 | C[C@@H]1CCCN1CCCOc1ccc(-c2ccc(OCc3ccccc3)nn2)cc1 [Example 21, 3-Benzyloxy-6-{4-[3-((R)-2-methyl-pyrrolidin-1-yl)-propoxy]phenyl}pyridazine] | 114 | > 7.30
34 | COc1ccc(-c2ccc(OCCCN3CCC[C@H]3C)cc2)nn1 [Example 22] | 121 | > 7.30
35 | COc1ccc(-c2ccc(OCCCN3CCCCC3)cc2)nn1 [Example 23] | 116 | > 7.30
36 | CC(C)Oc1ccc(-c2ccc(OCCCN3CCC[C@H]3C)cc2)nn1 [Example 24] | 75 | > 7.30
37 | c1ccc(Oc2ccc(-c3ccc(OCCCN4CCCCC4)cc3)nn2)cc1 [Example 25, 3-Phenoxy-6-[4-(3-piperidin-1-yl-propoxy)phenyl]pyridazine] | 139 | > 7.30
38 | C[C@@H]1CCCN1CCCOc1ccc(-c2ccc(OCc3ccc(F)cc3)nn2)cc1 [Example 26, 3-(4-Fluoro-benzyloxy)-6-{4-[3-((R)-2methyl-pyrrolidin-1-yl)-propoxy]phenyl}pyridazine] | 118 | > 7.30
